What all share (assay): IA-DTB cysteine engagement
Type in all cases: binding

Experiment [1] has as its target T1, TRPM4_C759 (Homo sapiens, UniProt Q8TD43).
T1 construct: endogenous in cells; host or cells: 22Rv1
Conditions: 22Rv1 cells, 20 μM probe, 1 h, relative to DMSO. An outline of the steps: (§1)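 Read-out is TMT-based cysteine engagement, expressed as each reporter ion intensity divided by the average of the DMSO channels. Before that, probe-treated cell lysates were capped with IA-DTB, digested, enriched on streptavidin and TMT-tagged. PSMs with DMSO summed intensity <10,000 or DMSO CV >0.5 were excluded.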

Experiment [2] addresses T2, BLOC1S2_C41 (Homo sapiens, UniProt Q6QNY1).
T2 construct: endogenous in cells; host or cells: 22Rv1
T2 sequence (Q6QNY1 1-142): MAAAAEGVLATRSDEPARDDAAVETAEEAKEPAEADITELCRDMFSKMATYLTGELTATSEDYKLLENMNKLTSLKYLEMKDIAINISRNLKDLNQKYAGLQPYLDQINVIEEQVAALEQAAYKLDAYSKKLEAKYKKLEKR
Conditions: 22Rv1 cells, 20 μM probe, 1 h, relative to DMSO. An outline of the steps:
as §1

Experiment [3] concerns the target T3, PDP1_C149 (Homo sapiens, UniProt Q9P0J1).
T3 construct: endogenous in cells; host or cells: 22Rv1
T3 sequence (Q9P0J1 72-537): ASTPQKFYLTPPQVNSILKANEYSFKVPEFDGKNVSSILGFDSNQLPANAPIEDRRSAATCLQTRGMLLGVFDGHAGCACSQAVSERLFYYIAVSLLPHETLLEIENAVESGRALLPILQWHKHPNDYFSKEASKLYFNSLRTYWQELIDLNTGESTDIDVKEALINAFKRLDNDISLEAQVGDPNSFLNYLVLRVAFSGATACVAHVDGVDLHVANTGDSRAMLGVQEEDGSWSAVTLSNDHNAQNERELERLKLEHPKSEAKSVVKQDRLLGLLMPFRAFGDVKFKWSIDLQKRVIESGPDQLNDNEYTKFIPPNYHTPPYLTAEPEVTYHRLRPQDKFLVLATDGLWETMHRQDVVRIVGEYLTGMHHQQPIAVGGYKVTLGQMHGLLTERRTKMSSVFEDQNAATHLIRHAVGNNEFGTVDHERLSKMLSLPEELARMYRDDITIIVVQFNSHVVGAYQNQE
Conditions: 22Rv1 cells, 20 μM probe, 1 h, relative to DMSO. An outline of the steps:
as §1

For experiment [4], the target named is T4, HMOX2_C282 (Homo sapiens, UniProt P30519).
T4 construct: endogenous in cells; host or cells: 22Rv1
T4 sequence (P30519 1-316): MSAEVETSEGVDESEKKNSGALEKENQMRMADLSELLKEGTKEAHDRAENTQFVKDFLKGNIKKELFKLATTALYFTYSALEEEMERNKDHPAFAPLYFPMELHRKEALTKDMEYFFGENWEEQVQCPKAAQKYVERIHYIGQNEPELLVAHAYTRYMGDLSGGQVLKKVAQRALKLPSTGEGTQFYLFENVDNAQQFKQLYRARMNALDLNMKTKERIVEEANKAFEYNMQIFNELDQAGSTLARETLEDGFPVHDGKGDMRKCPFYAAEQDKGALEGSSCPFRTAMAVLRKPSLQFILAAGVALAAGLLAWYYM
Conditions: 22Rv1 cells, relative to DMSO; for % engagement HMOX2_C282: 20 μM probe, 1 h; for % engagement HMOX2_282: 5 μM probe, 1 h (FIG. 5B). An outline of the steps: as §1

The record followed here is patent US20250034216A1, “STEREOSELECTIVE COVALENT LIGANDS FOR ONCOGENIC AND IMMUNOLOGICAL PROTEINS” (The Scripps Research Institute, priority 2021, published 2025).

T1 sequence (Q8TD43 whole entry): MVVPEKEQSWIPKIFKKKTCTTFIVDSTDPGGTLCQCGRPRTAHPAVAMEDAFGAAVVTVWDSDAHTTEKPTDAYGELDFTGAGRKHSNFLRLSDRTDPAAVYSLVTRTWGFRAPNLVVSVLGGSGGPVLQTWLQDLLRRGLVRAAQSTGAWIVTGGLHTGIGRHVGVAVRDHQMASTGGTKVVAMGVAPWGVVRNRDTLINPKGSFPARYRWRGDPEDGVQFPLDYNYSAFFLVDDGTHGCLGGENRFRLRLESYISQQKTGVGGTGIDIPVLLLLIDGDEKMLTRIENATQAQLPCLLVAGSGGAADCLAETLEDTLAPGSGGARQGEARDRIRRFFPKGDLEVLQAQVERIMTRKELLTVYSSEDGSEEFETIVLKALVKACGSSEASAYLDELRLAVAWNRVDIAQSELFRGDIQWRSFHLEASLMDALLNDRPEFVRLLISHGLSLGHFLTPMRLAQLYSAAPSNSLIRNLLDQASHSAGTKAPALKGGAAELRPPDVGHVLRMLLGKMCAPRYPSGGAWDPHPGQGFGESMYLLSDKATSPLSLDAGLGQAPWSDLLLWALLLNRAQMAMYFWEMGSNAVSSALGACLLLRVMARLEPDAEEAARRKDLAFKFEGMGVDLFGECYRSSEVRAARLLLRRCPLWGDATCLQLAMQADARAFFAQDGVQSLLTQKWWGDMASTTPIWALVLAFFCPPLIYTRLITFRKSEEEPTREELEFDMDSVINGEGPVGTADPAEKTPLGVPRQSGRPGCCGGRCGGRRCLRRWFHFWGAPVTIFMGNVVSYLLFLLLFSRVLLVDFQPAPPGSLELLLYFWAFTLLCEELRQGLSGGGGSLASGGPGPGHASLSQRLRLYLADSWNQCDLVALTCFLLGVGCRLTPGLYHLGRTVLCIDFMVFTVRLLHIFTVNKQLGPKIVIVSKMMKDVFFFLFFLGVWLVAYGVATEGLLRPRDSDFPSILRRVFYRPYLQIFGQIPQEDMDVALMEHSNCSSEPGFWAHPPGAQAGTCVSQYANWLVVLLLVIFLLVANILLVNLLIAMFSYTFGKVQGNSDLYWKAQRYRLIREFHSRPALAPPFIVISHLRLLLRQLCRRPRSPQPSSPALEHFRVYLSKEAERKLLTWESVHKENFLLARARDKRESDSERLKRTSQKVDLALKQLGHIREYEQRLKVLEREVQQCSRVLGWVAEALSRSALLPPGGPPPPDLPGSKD

As to `C=CC(=O)N1C[C@@H](c2ccc(Br)cc2)[C@H]1C(=O)Nc1cccc2cccnc12` [MY-1A, (2S,3R)-1-acryloyl-3-(4-bromophenyl)-N-(quinolin-8-yl)azetidine-2-carboxamide], in experiment [1], the “% engagement TRPM4_C759” value was 69.75%. Further, the “% engagement BLOC1S2_C41” value in experiment [2] was found to be 6%. Besides, in experiment [3], the “% engagement PDP1_C149” value is listed as 67%. For the same compound, in experiment [4], the “% engagement HMOX2_C282” value was 93.5%.

Regarding `C=CC(=O)N1C[C@H](c2ccc(Br)cc2)[C@@H]1C(=O)Nc1cccc2cccnc12` [MY-1B, (2R,3S)-1-acryloyl-3-(4-bromophenyl)-N-(quinolin-8-yl)azetidine-2-carboxamide], in experiment [1], the “% engagement TRPM4_C759” value is 48.75%. Besides, the “% engagement BLOC1S2_C41” value in experiment [2] stood at 70%. Moreover, the “% engagement PDP1_C149” value in experiment [3] was determined as 37.25%. In addition, in experiment [4], the “% engagement HMOX2_282” value was determined as 94.00% and the “% engagement HMOX2_C282” value is given as 96.25%.

With `C=CC(=O)N1C[C@H](c2ccc(Br)cc2)[C@H]1C(=O)Nc1cccc2cccnc12` [MY-3A, (2S,3S)-1-acryloyl-3-(4-bromophenyl)-N-(quinolin-8-yl)azetidine-2-carboxamide], in experiment [1], the “% engagement TRPM4_C759” value is given as 50.25%. Moreover, the “% engagement BLOC1S2_C41” value in experiment [2] is recorded as 3.5%. In addition, in experiment [3], the “% engagement PDP1_C149” value was 19.25%. Further, the “% engagement HMOX2_C282” value in experiment [4] came to 96.25%.

For `C=CC(=O)N1C[C@H](c2ccc(Br)cc2)[C@H]1C(=O)Nc1cccc2cccnc12` [MY-3B, (2S,3S)-1-acryloyl-3-(4-bromophenyl)-N-(quinolin-8-yl)azetidine-2-carboxamide], the “% engagement TRPM4_C759” value in experiment [1] is listed as 76.25%. Besides, in experiment [2], the “% engagement BLOC1S2_C41” value is on record as 66.5%. Further, the “% engagement PDP1_C149” value in experiment [3] is 37.25%. Also, the “% engagement HMOX2_C282” value in experiment [4] is 97.75%.

For `CC#CC(=O)N1C[C@H](c2ccc(Br)cc2)[C@@H]1C(=O)Nc1cccc2cccnc12` [MY-45B, (2R,3S)-3-(4-bromophenyl)-1-(but-2-ynoyl)-N-(quinolin-8-yl)azetidine-2-carboxamide], the “% engagement HMOX2_282” value in experiment [4] is 92.13%.
